Data set [1] deals with islets of Langerhans. Put plainly: cAMP determinations in isolated islets. Type of data set: cell-based, rat. On the procedure:
cAMP determinations. Islets of Langerhans were harvested from Wistar rats (Perfetti et al., 1995) and batches of 25 islets were then incubated for 1 h at 37° C. in a buffer containing (mM) 140 NaCl, 5 KCl, 1 NaPO4 1 MgSO4, 5 glucose, 2 CaCl2, 20 HEPES, buffer (pH 7.4) and 0.1% bovine serum albumin. Following this, they were incubated in the same buffer for 1 h in the presence of GLP-1 (1 nM) or exendin-4 (1 nM). Some batches of islets were then washed three times with ice-cold phosphate buffer saline (PBS) and lysed with 1 ml ice-cold […] perchloric acid. Other batches were washed three times in the buffer at 37° C. to remove peptide and left another 15 min before being washed three times in ice-cold PBS followed by lysis with the perchloric acid. The lysates (950 μl) were then transferred to microcentrifuge tubes and cAMP measured as previously described (See Example 1) using a cAMP [^3H] assay kit (Amersham).

The subject of data set [2] is AR42J cells. Put plainly: Intracellular cAMP in AR42J cells. It is filed as cell-based, rat. Conditions: 1 h; GLP-1 0.1 to 100 nM, IBMX 100 nM, CCK 0.1 to 100 nM, exendin-4 0.1 to 10 nM. On the procedure: Measurement of cAMP. Cells were grown in 12-well dishes and treated with hormones and reagents±IBMX as described above. They were then washed 3 times in ice-cold PBS and lysed with 1 ml ice-cold […] perchloric acid. The lysates (950 μl) were transferred to microcentrifuge tubes and the pH adjusted to 7.0 using 5 M K2CO3. After centrifugation for 5 min at 10^4 rpm, the supernatant was vacuum dried, and then recovered in 200 μl Tris/EDTA buffer. After addition of 0.15 mM Na2CO3 (50 μl) and 0.15 mM ZnSO^4 (50 μl), followed by incubation for 15 min on ice, the salt precipitate was removed by centrifugation for 15 min at 3.5×10^3 rpm and 50 μl of supernatant was assayed using a cAMP [^3] assay kit (Amersham Corp., Arlington Heights, Ill.), (Steiner et al., 1972).

For data set [3], the system named is ERK. Put plainly: MAP kinase (ERK) activity in AR42J cells. Type of data set: cell-based, rat. The conditions noted are these: 3 days; for ERK (MAP kinase) activity: GLP-1 10 nM, exendin-4 0.1 nM. On the procedure: MAP Kinase Activity. After treatment, 60 mm dishes of 80% confluent cells were lysed at 4° C. in lysis buffer (in mM): 50 TRIS-HCl, PH 8, 150 NaCl, 5 EDTA, 1% NP-40, 0.25% sodium deoxycholate, 1 NaF, 10 sodium pyrophosphate, 0.1 PMSF, 1 sodium orthovanadate, 20 μg/ml aprotinin, and 10 μg/ml leupeptin. The cell lysate was clarified by centrifugation at 16,000×g at 4° C. for 20 min. The clarified cell lysate was immunoprecipitated overnight at 4° C., rotating with 4.5 μg of ERK1-CT antibody and 40 μl of packed protein G+protein A agarose resin (Oncogene Research Product, Cambridge, Mass.). The immune pellet was assayed for MAPK activity using MBP as the substrate. MBP (18.6 μg) was phosphorylated at 20° C. for 10 min in a final volume of 60 μl containing 20 mM Hepes, PH 7.4, 10 mM MgCl2, 1 mM DTT, 20 uM unlabeled ATP and 40 μCi (3,000 Ci/mmol) [^32P]-ATP. The reaction was terminated by the addition of 25 μl of 3× Laemmli sample buffer and heating at 70° C. for 10 min. MAPK activity was assessed by SDS-PAGE and auto-radiography. The autoradiograms were quantified by densitometry.

Data set [4] concerns Wistar rats. Put plainly: Intravenous bolus of exendin-4 or GLP-1, plasma insulin in fasted anesthetized rats. It is filed as in vivo, rat. Conditions: for time by which insulin levels return to baseline: 0.4 nmol/kg iv bolus; for urine output during the study: iv bolus, not quantitated. The procedure:
Protocols. Wistar rats were fasted overnight. Following anesthesia with 50 mg/kg pentobarbital, a catheter was placed in the femoral artery for blood sampling. A bolus of either exendin-4 or GLP-1 was given into the saphenous vein (iv) over 30 sec to 12 animals, while a bolus of normal saline (NaCl) was given to the other six. The order of the injections was rotated. Blood (taken at −5, 0, 2, 5, 15, 30, 60, 120, and 180 min) was drawn into heparinized tubes containing EDTA and aprotinin for insulin determination (See Example 1). Animals were acclimated to the facility for at least 2 days.
Assays. Plasma glucose was measured by the glucose oxidase method (Wang et al., 1997). Insulin was measured by RIA as previously described (See Example 1). Hb A1c was assayed using a BIO-RAD (Herculas Calif.) DiaSTAT machine which uses low pressure cation exchange chromatography in conjunction with gradient elution to separate hemoglobin subtypes and variants from hemolyzed blood. The separated hemoglobin fractions were monitored by means of absorption of light at 415 nm.
Statistical methods. All results are given as mean±SEM. T tests were based on the results of an F test that looked at the equality of variance of the two means. […] For determination of the EC50 the basal plasma insulin levels were subtracted and the remaining activity at each concentration was expressed as a percent of the maximal activity (achieved by an excess of peptide). This was then transformed into a logit format where logit=ln (% activity/[100-% activity]) and was plotted as a function of the log concentration of the compound.

For data set [5], the system named is beta cells of the pancreas. The conditions noted are these: Goke et al., 1993; cited from earlier work.

A value given as a limit tells only on which side of the number the result lay.

As for `CC[C@H](C)[C@H](NC(=O)[C@H](Cc1ccccc1)NC(=O)[C@H](CCC(=O)O)NC(=O)[C@H](CCCCN)NC(=O)[C@H](C)NC(=O)[C@H](C)NC(=O)[C@H](CCC(N)=O)NC(=O)CNC(=O)[C@H](CCC(=O)O)NC(=O)[C@H](CC(C)C)NC(=O)[C@H](Cc1ccc(O)cc1)NC(=O)[C@H](CO)NC(=O)[C@H](CO)NC(=O)[C@@H](NC(=O)[C@H](CC(=O)O)NC(=O)[C@H](CO)NC(=O)[C@@H](NC(=O)[C@H](Cc1ccccc1)NC(=O)[C@@H](NC(=O)CNC(=O)[C@H](CCC(=O)O)NC(=O)[C@H](C)NC(=O)[C@@H](N)Cc1c[nH]cn1)[C@@H](C)O)[C@@H](C)O)C(C)C)C(=O)N[C@@H](C)C(=O)N[C@@H](Cc1c[nH]c2ccccc12)C(=O)N[C@@H](CC(C)C)C(=O)N[C@H](C(=O)N[C@@H](CCCCN)C(=O)NCC(=O)N[C@@H](CCCNC(=N)N)C(N)=O)C(C)C` [GLP-1], in data set [1], the “cAMP levels 15 min after removal of peptide by three washes” value is “returned to baseline” and the “concentration of maximum cAMP response” value amounted to 1 nM. Moreover, in data set [2], the “intracellular cAMP levels” value is “not altered”. In addition, the “ERK (MAP kinase) activity” value in data set [3] was “markedly increased”. For the same molecule, in data set [4], the “time by which insulin levels return to baseline” value is on record as at most 10 min and the “urine output during the study” value was “urinated little if any”.

In the case of exendin-4, the “cAMP levels 15 min after removal of peptide by three washes” value in data set [1] is “returned to baseline”. Also, the “cAMP levels relative to GLP-1” value in data set [1] (1 nM, 1 h) is listed as “approximately 3 fold”. In data set [5], the “lowest concentrations increasing cAMP and insulin secretion” value is reported as 10^−10 M. Moreover, the “intracellular cAMP levels” value in data set [2] is “did not alter”. Moreover, in data set [3], the “potency on ERK activation relative to GLP-1” value was “about 100 fold” and the “ERK (MAP kinase) activity” value was “markedly increased”. In data set [4] (0.4 nmol/kg iv), the “maximal insulin response compared with GLP-1” value was “approximately doubled”. Besides, in data set [4], the “time by which insulin levels return to baseline” value is at most 60 min and the “urine output during the study” value was “obvious increase in urine output”.

The values are drawn from patent US7056734B1, “Differentiation of non-insulin producing cells into insulin producing cells by GLP-1 or exendin-4 and uses thereof” (The United States of America as represented by the …, priority 1998, dated 2006).
